In brackets after ≈: the same amount, converted by molar mass. Activity calls are given as the source filed them. The rule behind the calls is not given here.
Experiments:
HCT-116 [1] = test: Induction of apoptosis in human HCT-116 cells assessed as early apoptotic cells at 1 uM incubated for 24 hrs in presence of 100 nM doxorubicin by AnnexinV-FITC/PI staining based flow cytometry (reference value: 3.04%); type: functional
[2] = target: Phosphatidylinositol 4,5-bisphosphate 3-kinase catalytic subunit gamma isoform (Homo sapiens, UniProt P48736); test: Inhibition of human PI3Kgamma by ADP-Glo assay; type: toxicity
HCT-116 [3] = test: Antiproliferative activity against human HCT-116 cells assessed as inhibition of cell growth incubated for 48 hrs by MTT assay; type: functional, cell-based; conditions: HCT-116, 48 h
HCT-116 [4] = test: Antiproliferative activity against human HCT-116 cells assessed as inhibition of cell growth incubated for 48 hrs in presence of 100 nM doxorubicin by MTT assay; type: functional, cell-based; conditions: HCT-116, 48 h
HCT-116 [5] = test: Synergistic antiproliferative activity against human HCT-116 cells assessed as combination index at 100 uM incubated for 48 hrs in presence of 0.1 to 50 uM doxorubicin by MTT assay; type: functional
HCT-116 [6] = test: Disruption of mitochondrial function in human HCT-116 cells assessed as decrease in mitochondrial membrane potential by measuring proportion of cells with red fluorescence at 1 uM incubated for 24 hrs by JC-1 staining based flow cytometry (reference value: 99.4%); type: functional; set-up: scale not given: the % may be the effect or the level left
HCT-116 [7] = test: Induction of apoptosis in human HCT-116 cells assessed as late apoptotic cells at 1 uM incubated for 24 hrs by AnnexinV-FITC/PI staining based flow cytometry (reference value: 3.07%); type: functional
HL-60 [8] = test: Synergistic antiproliferative activity against human HL-60 cells assessed as combination index at 0.5 uM in presence of 0.1 uM doxorubicin by MTT assay; type: functional
HL-60 [9] = test: Synergistic antiproliferative activity against human HL-60 cells assessed as combination index at 6.25 uM in presence of 0.1 uM doxorubicin by MTT assay; type: functional
HL-60 [10] = test: Synergistic antiproliferative activity against human HL-60 cells assessed as combination index at 12.5 uM in presence of 0.1 uM doxorubicin by MTT assay; type: functional
HL-60 [11] = test: Synergistic antiproliferative activity against human HL-60 cells assessed as combination index at 200 uM in presence of 0.1 uM doxorubicin by MTT assay; type: functional
MCF7 [12] = test: Synergistic antiproliferative activity against human MCF7 cells assessed as combination index at 0.1 uM in presence of 0.1 uM doxorubicin by MTT assay; type: functional
MCF7 [13] = test: Synergistic antiproliferative activity against human MCF7 cells assessed as combination index at 12.5 uM in presence of 0.1 uM doxorubicin by MTT assay; type: functional
MCF7 [14] = test: Synergistic antiproliferative activity against human MCF7 cells assessed as combination index at 50 uM in presence of 0.1 uM doxorubicin by MTT assay; type: functional
MCF7 [15] = test: Synergistic antiproliferative activity against human MCF7 cells assessed as combination index at 200 uM in presence of 0.1 uM doxorubicin by MTT assay; type: functional
MDA-MB-231 [16] = test: Synergistic antiproliferative activity against human MDA-MB-231 cells assessed as combination index at 1 uM in presence of 0.1 uM doxorubicin by MTT assay; type: functional
MDA-MB-231 [17] = test: Synergistic antiproliferative activity against human MDA-MB-231 cells assessed as combination index at 3.1 uM in presence of 0.1 uM doxorubicin by MTT assay; type: functional
MDA-MB-231 [18] = test: Synergistic antiproliferative activity against human MDA-MB-231 cells assessed as combination index at 6.25 uM in presence of 0.1 uM doxorubicin by MTT assay; type: functional
MDA-MB-231 [19] = test: Synergistic antiproliferative activity against human MDA-MB-231 cells assessed as combination index at 12.5 uM in presence of 0.1 uM doxorubicin by MTT assay; type: functional
MDA-MB-231 [20] = test: Synergistic antiproliferative activity against human MDA-MB-231 cells assessed as combination index at 25 uM in presence of 0.1 uM doxorubicin by MTT assay; type: functional
MDA-MB-231 [21] = test: Synergistic antiproliferative activity against human MDA-MB-231 cells assessed as combination index at 50 uM in presence of 0.1 uM doxorubicin by MTT assay; type: functional
HepG2 [22] = test: Synergistic antiproliferative activity against Doxorubicin-resistant human HepG2 cells assessed as combination index at 3.1 uM in presence of 0.1 uM doxorubicin by MTT assay; type: functional
HepG2 [23] = test: Synergistic antiproliferative activity against Doxorubicin-resistant human HepG2 cells assessed as combination index at 6.25 uM in presence of 0.1 uM doxorubicin by MTT assay; type: functional
HepG2 [24] = test: Synergistic antiproliferative activity against Doxorubicin-resistant human HepG2 cells assessed as combination index at 25 uM in presence of 0.1 uM doxorubicin by MTT assay; type: functional
HepG2 [25] = test: Synergistic antiproliferative activity against Doxorubicin-resistant human HepG2 cells assessed as combination index at 50 uM in presence of 0.1 uM doxorubicin by MTT assay; type: functional
HCT-116 [26] = test: Induction of apoptosis in human HCT-116 cells assessed as late apoptotic cells at 1 uM incubated for 24 hrs in presence of 100 nM doxorubicin by AnnexinV-FITC/PI staining based flow cytometry (reference value: 3.07%); type: functional
HCT-116 [27] = test: Inhibition of colony formation in human HCT-116 cells at 1 uM in presence of 100 nM doxorubicin; type: functional, cell-based
[28] = Kinetic solubility of the compound in phosphate-buffered solution at pH 6.4 incubated for 24 hrs by HPLC-MS/MS analysis; type: physicochemical; conditions: phosphate buffer, read-out: Kinetic_solubility
[29] = Half life in Sprague-Dawley rat at 5 mg/kg, po; type: ADME, organism-based; conditions: in vivo
HL-60 [30] = test: Synergistic antitumor activity against human HL-60 cells xenografted in BALB/c nude mouse assessed as tumor weight at 100 mg/kg, po qd for 16 days co-administered with doxorubicin (reference value: 27.9%); type: functional; conditions: HL-60, 384 h, time 16 day
[31] = Toxicity in BALB/c nude mouse xenografted with human HL-60 cells assessed as serum monocytes content at 100 mg/kg, po qd for 16 days (reference value: 0.5X10^9/L); type: organism-based; conditions: in vivo, 384 h, time 16 day
[32] = Toxicity in BALB/c nude mouse xenografted with human HL-60 cells assessed as serum lymphocytes content at 100 mg/kg, po qd for 16 days (reference value: 75.3%); type: organism-based; conditions: in vivo, 384 h, time 16 day
[33] = Toxicity in BALB/c nude mouse xenografted with human HL-60 cells assessed as serum RBC content at 100 mg/kg, po qd for 16 days (reference value: 10.375X10^12/L); type: organism-based, Erythrocyte; conditions: in vivo, 384 h, time 16 day
[34] = Toxicity in BALB/c nude mouse xenografted with human HL-60 cells assessed as MCV level at 100 mg/kg, po qd for 16 days (reference value: 57.2 fL); type: organism-based; conditions: in vivo, 384 h, time 16 day
[35] = Toxicity in BALB/c nude mouse xenografted with human HL-60 cells assessed as MPV level at 100 mg/kg, po qd for 16 days (reference value: 7.55 fL); type: organism-based; conditions: in vivo, 384 h, time 16 day
in vitro = conditions: human, Caco-2
Description: Efflux ratio of apparent permeability across basolateral to apical side over apical to basolateral side in human Caco-2 cells

Chain of Phosphatidylinositol 4,5-bisphosphate 3-kinase catalytic subunit gamma isoform (P48736 whole entry, canonical isoform): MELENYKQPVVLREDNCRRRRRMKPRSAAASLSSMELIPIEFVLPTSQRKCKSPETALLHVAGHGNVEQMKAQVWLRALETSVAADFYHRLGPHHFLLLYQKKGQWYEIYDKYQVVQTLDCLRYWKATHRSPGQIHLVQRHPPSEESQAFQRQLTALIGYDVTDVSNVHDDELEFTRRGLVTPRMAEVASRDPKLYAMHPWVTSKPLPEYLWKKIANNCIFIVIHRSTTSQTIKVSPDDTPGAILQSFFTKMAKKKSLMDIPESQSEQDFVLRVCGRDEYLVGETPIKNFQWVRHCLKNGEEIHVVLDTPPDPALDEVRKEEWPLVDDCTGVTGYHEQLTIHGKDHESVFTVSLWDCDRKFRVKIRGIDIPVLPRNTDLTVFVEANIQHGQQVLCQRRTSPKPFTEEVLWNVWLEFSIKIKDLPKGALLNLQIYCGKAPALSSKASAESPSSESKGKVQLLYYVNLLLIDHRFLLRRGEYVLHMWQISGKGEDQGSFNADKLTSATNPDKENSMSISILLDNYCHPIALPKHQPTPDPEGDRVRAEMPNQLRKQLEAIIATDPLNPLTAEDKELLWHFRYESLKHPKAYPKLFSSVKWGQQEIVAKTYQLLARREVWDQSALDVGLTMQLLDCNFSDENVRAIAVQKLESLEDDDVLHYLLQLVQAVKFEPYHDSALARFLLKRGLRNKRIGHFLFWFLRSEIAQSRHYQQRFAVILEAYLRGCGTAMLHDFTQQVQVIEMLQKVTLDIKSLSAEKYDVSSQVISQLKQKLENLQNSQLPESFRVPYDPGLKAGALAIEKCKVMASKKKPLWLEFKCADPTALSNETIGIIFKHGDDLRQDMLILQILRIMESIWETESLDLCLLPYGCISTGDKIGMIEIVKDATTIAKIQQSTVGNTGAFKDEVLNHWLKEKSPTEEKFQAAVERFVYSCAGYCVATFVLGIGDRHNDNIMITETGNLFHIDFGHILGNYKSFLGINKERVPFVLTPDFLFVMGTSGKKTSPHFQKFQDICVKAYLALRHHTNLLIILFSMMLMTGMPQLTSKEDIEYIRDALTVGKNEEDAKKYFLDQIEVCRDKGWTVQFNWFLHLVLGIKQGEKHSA

Cc1cc2ncnn2cc1Nc1ncc2c(n1)N(C1CCOCC1)CC(=O)N2C
Activity (HCT-116 [1]): 13.3% | IC50 [2]: 281 nM | IC50 (HCT-116 [3]): 24.1 µM | IC50 (HCT-116 [4]): 17.1 µM | CI (HCT-116 [5]): <0.1 | Activity (HCT-116 [6]): 96.4% | Activity (HCT-116 [7]): 4.05% | CI (HL-60 [8]): 0.00341 | CI (HL-60 [9]): 0.03585 | CI (HL-60 [10]): 0.06945 | CI (HL-60 [11]): 0.9812 | CI (MCF7 [12]): 0.2844 | CI (MCF7 [13]): 0.06131 | CI (MCF7 [14]): 0.1215 | CI (MCF7 [15]): 0.2697 | CI (MDA-MB-231 [16]): 0.2676 | CI (MDA-MB-231 [17]): 0.3259 | CI (MDA-MB-231 [18]): 0.3693 | CI (MDA-MB-231 [19]): 0.474 | CI (MDA-MB-231 [20]): 0.5933 | CI (MDA-MB-231 [21]): 0.705 | CI (HepG2 [22]): 0.02104 | CI (HepG2 [23]): 0.0268 | CI (HepG2 [24]): 0.07268 | CI (HepG2 [25]): 0.09496 | Activity (HCT-116 [26]): 7.51% | inhibition (HCT-116 [27]): Active | solubility kinetic at 24 h [28]: 72.2 µg/mL (≈ 183 µM) | half-life [29]: 95.4 min | inhibition in vivo at 100 mg/kg (HL-60 [30]): 52.4% | Activity [31]: 0.51 10^9/L | Activity [32]: 77.25% | Activity [33]: 10.315 10^12/L | Activity [34]: 56.1 fL | Activity [35]: 6.85 fL | efflux ratio (in vitro): 4.84

Reference: ChEMBL document CHEMBL5120836, “Discovery of novel 7,8-dihydropteridine-6(5H)-one-based DNA-PK inhibitors as potential anticancer agents via scaffold hopping strategy” (Eur J Med Chem, 2022)
